Source: the supplement of paper PMC10307832

Compound: O=C(NCCCNc1nc(Nc2cccc(NC(=O)N3CCCC3)c2)ncc1I)c1cccs1 [BX 795] + COc1cc2c(Oc3ccc(NC(=O)C4(C(=O)Nc5ccc(F)cc5)CC4)cc3F)ccnc2cc1OCCCN1CCOCC1 [Foretinib] (partner 0.25 µM)
Test: relative viability (nuclei count vs DMSO), 5 days (fraction); higher = more cells survive
In short: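 A single step with final 0.05% Triton X-100, 1% formaldehyde and 1 ug/ml Hoechst fixed the cells and stained nuclei 5 days after treatment. Lung cancer cell lines in 1536-well plates had been treated by pin tool the day after seeding with one drug alone or a fixed anchor-drug dose plus five library-drug doses (not always all listed) in √10 steps, and nuclei were counted on 4× images. Relative viability is the ratio of nuclei in treated wells to nuclei in vehicle wells, taken as the median of duplicate plates.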

Cell Line	relative viability (first compound 0.04 µM)	relative viability (first compound 0.1265 µM)	relative viability (first compound 0.4 µM)	relative viability (first compound 1.265 µM)
201T	1.2	1.13	0.952	1.21
A-427	0.98	1.12	1.07	0.897
ABC-1	1.03	1.05	0.929	0.601
BEN	0.54	0.645	0.818	0.803
CAL-12T	1.16	1.13	0.873	1.07
COR-L23	1.07	0.97	0.909	0.715
COR-L 105	1.29	0.962	0.861	0.662
ChaGo-K-1	0.993	0.89	0.982	0.767
EKVX	0.496	0.893	0.516	0.726
EMC-BAC-2	1.01	1.12	0.914	0.322
EPLC-272H	0.739	0.721	0.653	0.527
H3255	0.965	0.764	1.02	0.848
HARA	0.914	0.935	0.849	0.31
HCC-15	0.973	1.04	0.925	0.915
HCC-78	0.665	0.537	0.596	0.5
HCC-366	0.973	0.959	0.94	0.235
HCC-827	1.18	1.12	1.09	1.04
HOP-62	1.04	0.967	1.37	0.923
IA-LM	1.15	1.19	1.28	0.628
LC-2-ad	1.12	0.867	0.981	0.808
LCLC-97TM1	0.912	0.913	0.862	0.567
LCLC-103H	0.848	0.843	0.847	0.621
LK-2	0.937	1.51	1.31	1.1
LOU-NH91	0.936	0.922	0.934	0.979

Cell Line	relative viability (first compound 0.04 µM)	relative viability (first compound 0.1265 µM)	relative viability (first compound 0.4 µM)	relative viability (first compound 1.265 µM)
LU99A	0.808	0.901	0.793	0.602
LXF-289	0.963	0.908	1.02	0.9
NCI-H23	0.943	0.872	1	0.472
NCI-H322M	0.949	1.17	0.967	1.33
NCI-H358	0.656	0.837	0.532	0.393
NCI-H441	1.28	0.908	1.18	0.796
NCI-H460	1.03	1.16	1.01	0.922
NCI-H520	0.555	0.772	0.832	0.365
NCI-H596	0.873	0.745	1.07	0.787
NCI-H647	1.19	1.24	1.26	0.916
NCI-H650	1.06	0.935	0.927	0.911
NCI-H661	1.09	1.04	1.03	0.908
NCI-H727	0.957	0.846	0.916	1.09
NCI-H838	0.952	0.924	0.917	0.413
NCI-H1355	1.03	1.07	1.09	0.773
NCI-H1395	0.979	1.02	0.943	0.899
NCI-H1437	1.08	1.25	1.39	0.99
NCI-H1563	0.914	1.04	0.925	0.848
NCI-H1650	1.24	1.06	0.668	0.792
NCI-H1651	0.786	0.748	0.76	0.674
NCI-H1666	1.07	1.05	1.11	0.787
NCI-H1734	0.836	0.982	0.83	0.456
NCI-H1755	0.926	0.865	0.894	0.67
NCI-H1793	0.887	0.663	0.834	0.266

Cell Line	relative viability (first compound 0.04 µM)	relative viability (first compound 0.1265 µM)	relative viability (first compound 0.4 µM)	relative viability (first compound 1.265 µM)
NCI-H1915	1.07	1.1	1.08	0.995
NCI-H1944	0.996	0.888	1.06	0.802
NCI-H1975	0.833	1.11	0.972	0.898
NCI-H1993	0.804	0.961	0.73	0.665
NCI-H2009	1.21	1.19	1.16	1.11
NCI-H2023	0.722	0.912	0.427	0.551
NCI-H2085	1.05	1.05	0.873	0.809
NCI-H2087	1.06	1.13	1.24	0.623
NCI-H2126	1.31	1.02	1.3	1.03
NCI-H2170	0.979	1.02	1.05	0.998
NCI-H2228	1.05	0.967	1.13	0.625
NCI-H2342	1.17	0.896	1.07	0.914
NCI-H2347	1.03	0.915	0.8	0.773
NCI-H2405	1.08	1.06	1.02	0.935
NCI-H3122	1.01	1.04	1	0.992
PC-3 [JPC-3]	1.03	1.03	1.03	0.949
PC-14	0.861	1.01	0.992	0.704
RERF-LC-KJ	0.907	0.851	0.889	0.888
SK-LU-1	0.762	0.902		0.569
SK-MES-1	0.917	0.971	0.823	0.674
SW 1573	0.916	0.844	0.971	0.777
UMC-11	0.85	1.06	0.805	0.168
